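Protocol summary: plate cells (96-well), add compound at 5 concentrations, incubate 48 h, interpolate endpoints linearly. Abbreviation: GI50, concentration required for 50% inhibition of growth. TGI: total growth inhibition.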
Columns and labels:
Assay in all cases: NCI anticancer screen, dose series, 48 h
[1] = test system: COLO 205 colon
[2] = test system: SNB-75 CNS
[3] = test system: MOLT-4 leukemia
[4] = test system: SK-OV-3 ovarian
[5] = test system: DU-145 prostate
[6] = test system: IGROV1 ovarian
[7] = test system: A549 NSCLC
[8] = test system: HS 578T breast
[9] = test system: NCI-H23 lung
[10] = test system: ACHN renal
[11] = test system: HOP-62 NSCLC
[12] = test system: HCC-2998 colon
[13] = test system: UACC-257 melanoma
[14] = test system: U251 CNS
[15] = test system: KM12 colon
[16] = test system: MCF7 breast
[17] = test system: RXF 393 renal
[18] = test system: HOP-92 NSCLC
[19] = test system: 786-0 renal
[20] = test system: OVCAR-8 ovarian
[21] = test system: SK-MEL-5 melanoma
[22] = test system: UACC-62 melanoma
[23] = test system: MALME-3M melanoma
[24] = test system: K-562 leukemia
[25] = test system: HCT-15 colon
[26] = test system: EKVX NSCLC
[27] = test system: A498 renal
[28] = test system: HCT-116 colon
[29] = test system: PC-3 prostate
[30] = test system: SR leukemia
[31] = test system: MDA-MB-468 breast
[32] = test system: SN12C renal
[33] = test system: SF-539 CNS
[34] = test system: OVCAR-4 ovarian
[35] = test system: SF-295 CNS
[36] = test system: HL-60(TB) leukemia
[37] = test system: HT29 colon
[38] = test system: NCI-H226 lung
[39] = test system: SF-268 CNS
[40] = test system: NCI-H522 lung
[41] = test system: BT-549 breast
[42] = test system: MDA-MB-435
[43] = test system: LOX IMVI melanoma
[44] = test system: SK-MEL-28 melanoma
[45] = test system: T-47D breast
[46] = test system: NCI-H460 lung
[47] = test system: CCRF-CEM leukemia
[48] = test system: UO-31 renal
[49] = test system: OVCAR-3 ovarian
[50] = test system: RPMI-8226 leukemia
[51] = test system: MDA-MB-231 breast
[52] = test system: OVCAR-5 ovarian
[53] = test system: M14 melanoma
[54] = test system: SW-620 colon
[55] = test system: CAKI-1 renal
[56] = test system: TK-10 renal
[57] = test system: SNB-19 CNS

O=C(COc1ccc(NC(=O)Nc2ccc(Cl)cc2)cc1)N/N=C/c1ccccc1
GI50 [1]: 19 µM | TGI [1]: > 100 µM | GI50 [2]: 3.95 µM | TGI [2]: 24.3 µM | GI50 [3]: 59.5 µM | TGI [3]: > 100 µM | GI50 [4]: 6.06 µM | TGI [4]: 25.8 µM | GI50 [5]: 4.51 µM | TGI [5]: > 100 µM | GI50 [6]: 14.1 µM | TGI [6]: > 100 µM | GI50 [7]: 4.67 µM | TGI [7]: > 100 µM | GI50 [8]: 7.71 µM | TGI [8]: 54.2 µM | GI50 [9]: 4.21 µM | TGI [9]: 25.9 µM | GI50 [10]: 4.64 µM | TGI [10]: 37.6 µM | GI50 [11]: 2.62 µM | TGI [11]: 11.1 µM | GI50 [12]: 22.5 µM | TGI [12]: > 100 µM | GI50 [13]: 17.4 µM | TGI [13]: > 100 µM | GI50 [14]: 4.05 µM | TGI [14]: > 100 µM | GI50 [15]: > 100 µM | TGI [15]: > 100 µM | GI50 [16]: 3.88 µM | TGI [16]: > 100 µM | GI50 [17]: 4.55 µM | TGI [17]: 19 µM | GI50 [18]: 3 µM | TGI [18]: 16 µM | GI50 [19]: 6.26 µM | TGI [19]: 24.9 µM | GI50 [20]: 3.81 µM | TGI [20]: > 100 µM | GI50 [21]: 8.49 µM | TGI [21]: > 100 µM | GI50 [22]: 2.82 µM | TGI [22]: 13.7 µM | GI50 [23]: 4.44 µM | TGI [23]: 71.7 µM | GI50 [24]: 12.6 µM | TGI [24]: > 100 µM | GI50 [25]: 5.85 µM | TGI [25]: > 100 µM | GI50 [26]: 6.09 µM | TGI [26]: 90.8 µM | GI50 [27]: 20.1 µM | TGI [27]: 50.9 µM | GI50 [28]: 1.68 µM | TGI [28]: 12.6 µM | GI50 [29]: 2.81 µM | TGI [29]: 21.2 µM | GI50 [30]: 4.59 µM | TGI [30]: 33.1 µM | GI50 [31]: 3.23 µM | TGI [31]: 10.6 µM | GI50 [32]: 7.64 µM | TGI [32]: > 100 µM | GI50 [33]: 6.23 µM | TGI [33]: 27.4 µM | GI50 [34]: 3.34 µM | TGI [34]: 68.7 µM | GI50 [35]: 2.69 µM | TGI [35]: 13.7 µM | GI50 [36]: > 100 µM | TGI [36]: > 100 µM | GI50 [37]: 31.2 µM | TGI [37]: > 100 µM | GI50 [38]: 2.85 µM | TGI [38]: 9.82 µM | GI50 [39]: 16.2 µM | TGI [39]: 99.8 µM | GI50 [40]: 7.74 µM | TGI [40]: > 100 µM | GI50 [41]: 4.41 µM | TGI [41]: 56.2 µM | GI50 [42]: 3.76 µM | TGI [42]: > 100 µM | GI50 [43]: 7.1 µM | TGI [43]: > 100 µM | GI50 [44]: 3.87 µM | TGI [44]: 43.1 µM | GI50 [45]: 8.22 µM | TGI [45]: > 100 µM | GI50 [46]: 3.22 µM | TGI [46]: > 100 µM | GI50 [47]: 21.8 µM | TGI [47]: > 100 µM | GI50 [48]: 86.4 µM | TGI [48]: > 100 µM | GI50 [49]: 4.15 µM | TGI [49]: 54.2 µM | GI50 [50]: 63.9 µM | TGI [50]: > 100 µM | GI50 [51]: 8.57 µM | TGI [51]: 47.6 µM | GI50 [52]: > 100 µM | TGI [52]: > 100 µM | GI50 [53]: 5.02 µM | TGI [53]: > 100 µM | GI50 [54]: 6.03 µM | TGI [54]: > 100 µM | GI50 [55]: 15 µM | TGI [55]: > 100 µM | GI50 [56]: 20.2 µM | TGI [56]: 63.8 µM | GI50 [57]: 4.42 µM | TGI [57]: 20.7 µM

Reference: PubChem BioAssay (NCI)
